Test results taken from publication PMC3991719 (PLoS ONE, 2014).

Legend:
[1] = tested on: TSST-1 production by S. aureus MN8; assay type: cell-based, Staphylococcus aureus
S. aureus MN8 = assay type: cell-based, Staphylococcus aureus
L. crispatus = L. crispatus growth and culture pH, 9 h assay; assay type: cell-based, Lactobacillus crispatus; settings: data not shown; for Alteration of L. crispatus media pH compared to untreated controls: broth cultures, pH meter; for Effect on L. crispatus growth (CFUs/ml): human normal vaginal isolate, 9 h assay, plate counts on Todd Hewitt agar
Description: Cultures of a human normal vaginal isolate of L. crispatus were subjected to the same 9 hour assay as used to determine peptide antimicrobial effects on S. aureus. CFUs/ml were determined by dilution plate counts on Todd Hewitt agar (BD). The pHs of overnight broth cultures were also determined with use of a standard pH meter.

S. aureus MNPE = assay type: cell-based, Staphylococcus aureus
[2] = tested on: TSST-1 production by S. aureus MNPE; assay type: cell-based, Staphylococcus aureus
[3] = tested on: α-toxin production by S. aureus MNPE; assay type: cell-based, Staphylococcus aureus
[4] = tested on: human vaginal epithelial cells (HVECs)
[5] = tested on: IL-8 production by HVECs exposed to S. aureus MN8; assay type: cell-based, human

For “HNP-2: human defensin peptide purchased from Sigma-Aldrich (CYCRIPACIAGERRYGTCIYQGRLWAFCC)”, the “Lowest dose giving complete inhibition of TSST-1 production” value [1] was 0.005 µg/mL, the “Antimicrobial activity against S. aureus” value (S. aureus MN8) was “no antimicrobial activity was observed” and the “Reduction of S. aureus growth” value (S. aureus MN8) was 1 log.

For “HNP-1: human defensin peptide purchased from Sigma-Aldrich”, the “Lowest dose giving complete inhibition of TSST-1 production” value [1] was 0.005 µg/mL, the “Antimicrobial activity against S. aureus” value (S. aureus MN8) was “no antimicrobial activity was observed” and the “Reduction of S. aureus growth” value (S. aureus MN8) was 1 log.

With “SP-1: hemoglobin-like synthetic peptide, 0% positively-charged amino acids (SFPTTATYFPAFDLSAGSAQVA)” the “Alteration of L. crispatus media pH compared to untreated controls” value (shortened to “Alteration … compared to untreated controls”) (L. crispatus) was “nor was alteration in media pH observed”, the “Effect on L. crispatus growth (CFUs/ml)” value (L. crispatus) was “No inhibition of growth” and the “Effect on S. aureus MNPE growth” value (S. aureus MNPE) was “lacked antimicrobial”. The “TSST-1 inhibition activity (in words)” value [2] was “lacked antimicrobial (data not shown) and TSST-1 inhibition activity”, the “Inhibition of α-toxin production (in words)” value [3] was “no inhibition of α-toxin production” and the “TSST-1 inhibition activity (in words)” value [1] was “lacked antimicrobial (data not shown) and TSST-1 inhibition activity”. The “Effect on S. aureus MN8 growth (CFUs/ml)” value (S. aureus MN8) was “lacked antimicrobial”.

In the case of “SP-2: hemoglobin-like synthetic peptide, 50% positively-charged amino acids (SKPKKKTYKPHKDLSHGSAKKK)”, the “Alteration … compared to untreated controls” value (L. crispatus) is reported as “nor was alteration in media pH observed”, the “Effect on L. crispatus growth (CFUs/ml)” value (L. crispatus) is reported as “No inhibition of growth” and the “Effect on S. aureus MNPE growth” value (S. aureus MNPE) is reported as “without affecting bacterial growth”. The “TSST-1 inhibition activity (in words)” value [2] was “showed the greatest TSST-1 inhibition activity”, the “Concentration at which inhibition of α-toxin production was shown” value [3] was 0.005 µg/mL and the “TSST-1 inhibition activity (in words)” value [1] was “showed the greatest TSST-1 inhibition activity”. For the same substance, the “Effect on S. aureus MN8 growth (CFUs/ml)” value (S. aureus MN8) was “without affecting bacterial growth”, the “Cytotoxicity to HVECs” value [4] was “not cytotoxic” and the “IL-8 production by HVECs incubated with MN8 and peptide” value [5] was 3.6 ± 7.2 pg/mL.

For “Hbg-2: Hbg-1 peptide with scrambled sequence (STKPFFYFLHTQVKASPTSHDG)”, the “Alteration … compared to untreated controls” value (L. crispatus) was “nor was alteration in media pH observed”, the “Effect on L. crispatus growth (CFUs/ml)” value (L. crispatus) was “No inhibition of growth” and the “TSST-1 inhibition activity (in words)” value [1] was “comparably active as Hbg-1”. For the same substance, the “Effect on S. aureus MN8 growth (CFUs/ml)” value (S. aureus MN8) was “not antimicrobial at any concentration tested”.
